Experiments:
[1] = Solubility of BIOLIMUS A9; assay type: physicochemical
[2] = tested on: proliferating animal and human smooth muscle cells; assay: Growth inhibition of smooth muscle cells in culture; assay type: cell-based; conditions: compared with sirolimus
Excerpt: Like sirolimus and everolimus, BIOLIMUS A9 is rapidly absorbed in tissues and is able to reversibly bind to immunophilins (cytoplasmic proteins) found inside living cells.

[3] = Partition coefficient (log P), reverse phase HPLC

SMILES: CCOCCO[C@@H]1CC[C@@H](C[C@@H](C)[C@@H]2CC(=O)[C@H](C)/C=C(\C)[C@@H](O)[C@@H](OC)C(=O)[C@H](C)C[C@H](C)/C=C/C=C/C=C(\C)[C@@H](OC)C[C@@H]3CC[C@@H](C)[C@@](O)(O3)C(=O)C(=O)N3CCCC[C@H]3C(=O)O2)C[C@H]1OC [BIOLIMUS A9, 42-O-(2-ethoxyethyl)rapamycin]
- Solubility: 25% ethanol in water ([1]; 25% ethanol in water): Practically insoluble
- Solubility: ethanol ([1]; ethanol): Very soluble
- Solubility: ethyl acetate ([1]; ethyl acetate): Very soluble
- Solubility: methanol ([1]; methanol): Very soluble
- Solubility: water (independent of pH) ([1]; water (independent of pH)): Practically insoluble
- potency of growth inhibition of proliferating smooth muscle cells [2]: potency similar to that of sirolimus
- peak blood levels (after stent implantation): 3 ng/mL
- peak blood level lower than therapeutic levels of oral sirolimus or everolimus following organ transplant (in vivo, po): 20 fold
- Partition Coefficient (E Log Poct): Log Pn-octanol ([3]; As measured by reverse phase HPLC): Log Pn-octanol = 7.63
- partition coefficient (log P) ([3]; pH 7.40, estimated): 7.63

From patent US20100055145A1, “STENT COATINGS FOR REDUCING LATE STENT THROMBOSIS” (Biosensors International Group, priority 2008, published 2010)
